Measured values taken from patent publication US5650411A, “Substituted azolone derivatives” (Janssen Pharmaceutica N.V., priority 1993, dated 1997).
Converted amounts (≈) assume the structure as drawn. Counter-ions that a name gives are not always drawn.

System: Helicobacter pylori
Test: Minimal inhibitory concentration (MIC) against Helicobacter pylori, urease read-out, 5 clinical strains
Type: cell-based
Details: 5 H. pylori clinical strains, 10% blood agar, 48 h at 37° C., microaerophilic, read-out: MIC
Experimental: The anti-Helicobacter activity of the subject compounds was assessed by the following in-vitro test procedure.
The activity of test compounds against Helicobacter pylori was determined against a standard set of 5 H. priori strains obtained from clinical material. Minimal inhibitory concentrations (MICs) were determined by measuring the activity of H. pylori urease after treatment of growing cultures of the bacteria with the antimicrobial agents.
The test compounds were dissolved in DMSO at a concentration of 10^-3 M. A dilution to 10^-4 M in DMSO was also prepared. 10 μl volumes of these solutions were pipetted in the wells of Repli-Dishes (®Sterilin). Wells containing DMSO alone were included as controls in each Repli-Dish. Ampicillin ((+)-6-[(2-amino-2-phenylacetyl)amino]-3,3-dimethyl-7-oxo-4-thia-1-azabicyclo[3.2.0]heptane-2-carboxylic acid trihydrate) and metronidazole (2-methyl-5-nitro-1H-imidazol-1-ethanol) were included as reference compounds in each batch of tests. (These compounds were tested at final concentrations of 10^-5, 10^-6, 10^-7 and 10^-8 M). Test plates were stored at 4° C. until used. The five isolates of H. pylori were maintained by subculture on 10% blood agar every 2 or 3 days. The bacteria were grown at 37° C. under an atmosphere containing 5% oxygen, 10% CO2 and 85% nitrogen. Suspensions of Helicobacter pylori for inoculum were prepared in Brain-heart infusion broth and adjusted to an absorbance of 1.5±0.3 at […].
Freshly prepared 10% blood agar held at 45° C. was added in 1 ml volumes to the wells of the test plates, thus diluting the test compounds to 10^-5 and 10^-6 M. The medium was allowed to cool, then 10 μl volumes of bacterial suspension were pipetted on the agar surface. The plates were incubated for 48 h at 37° C. under the microaerophilic atmosphere described above. […] After the 48 h of incubation, 1 ml volumes of urease broth were gently added to each Repli-Dish well and the plates were incubated at 37° C. for 2 h. 100 μl samples of fluid from each well were then pipetted into the wells of 96-place microdilution plates. A purple colour was interpreted as growth, yellow-orange as no growth of H. pylori. By this means a clear end-point was obtained, from which the inhibitory effects could be determined.
Table 1 summarizes the MIC values determined by the above procedure for a subset of the subject compounds.

SMILES | MIC [µM]
CCC(C(=O)c1ccc(Cl)cc1)n1ncn(-c2ccc(N3CCN(c4ccccc4OC)CC3)nc2)c1=O (racemic) [compound 5, (±)-2-[1-(4-chlorobenzoyl)propyl]-2,4-dihydro-4-[6-[4-(2-methoxyphenyl)-1-piperazinyl]-3-pyridinyl]-3H-1,2,4-triazol-3-one] | 0.1 (≈ 0.0533 µg/mL)
CCC(C(O)c1ccc(Cl)cc1)n1ncn(-c2ccc(N3CCN(c4ccc(O)cc4)CC3)nc2)c1=O (racemic) [compound 14, (±)-2-[1-[(4-chlorophenyl)hydroxymethyl]propyl]-2,4-dihydro-4-[6-[4-(4-hydroxyphenyl)-1-piperazinyl]-3-pyridinyl]-3H-1,2,4-triazol-3-one] | 0.1 (≈ 0.0521 µg/mL)
Cc1cn(C(C)C(O)c2ccc(Cl)cc2)c(=O)n1-c1ccc(N2CCN(c3ccc(O)cc3)CC2)cc1 (centres unmarked) [compound 11, 1-[2-(4-chlorophenyl)-2-hydroxy-1-methylethyl]-1,3-dihydro-3-[4-[4-(4-hydroxyphenyl)-1-piperazinyl]phenyl]-4-methyl-2H-imidazol-2-one] | 1 (≈ 0.519 µg/mL)
CCC(C(=O)c1ccc(Cl)cc1)n1ncn(-c2ccc(N3CCN(c4ccc(OC)c(OC)c4)CC3)nc2)c1=O (racemic) [compound 48, (±) -2-[1-(4-chlorobenzoyl)propyl]-4-[6-[4-(3,4-dimethoxyphenyl)-1-piperazinyl]-3-pyridinyl]-2,4-dihydro-3H-1,2,4-triazol-3-one dihydrochloride] | ≤ 0.001
Cc1nn(C(C)(C)C(O)c2ccc(Br)cc2)c(=O)n1-c1ccc(N2CCN(c3ccc(O)cc3)CC2)cc1 (racemic) [compound 22, (±)-2-[2-(4-bromophenyl)-2-hydroxy-1,1-dimethylethyl]-2,4-dihydro-4-[4-[4-(4-hydroxyphenyl)-1-piperazinyl]phenyl]-5-methyl-3H-1,2,4-triazol-3-one] | 1 (≈ 0.579 µg/mL)
CC[C@H]([C@H](O)c1ccc(Cl)cc1)n1ncn(-c2ccc(N3CCN(c4ccc(OC)c(OC)c4)CC3)nc2)c1=O (relative stereo) [compound 49, (±)-(R*,R*)-2-[1-[(4-chlorophenyl)hydroxymethyl]propyl]-4-[6-[4-(3,4-dimethoxy-phenyl)-1-piperazinyl]-3-pyridinyl]-2,4-dihydro-3H-1,2,4-triazol-3-one] | 0.01 (≈ 0.00565 µg/mL)

The remaining lines, values ahead:

MIC [µM] | SMILES
10 (≈ 5.33 µg/mL) | CCC(C(=O)c1ccc(Cl)cc1)n1ncn(-c2ccc(N3CCN(c4ccc(OC)cc4)CC3)cn2)c1=O (racemic) [compound 2, (±)-2-[1-(4-chlorobenzoyl)propyl]-2,4-dihydro-4-[5-[4-(4-methoxyphenyl)-1-piperazinyl]-2-pyridinyl]-3H-1,2,4-triazol-3-one]
0.1 (≈ 0.0519 µg/mL) | CCC(C(=O)c1ccc(Cl)cc1)n1ncn(-c2ccc(N3CCN(c4ccc(O)cn4)CC3)cc2)c1=O (racemic) [compound 27, (±)-2-[1-(4-chlorobenzoyl)propyl]-2,4-dihydro-4-[4-[4-(5-hydroxy-2-pyridinyl)-1-piperazinyl]phenyl]-3H-1,2,4-triazol-3-one]
0.1 (≈ 0.0534 µg/mL) | CCC(C(=O)c1ccc(Cl)cc1)n1ncn(-c2ccc(N3CCN(c4ccc(OC)cn4)CC3)nc2)c1=O (racemic) [compound 37, (±)-2-[1-(4-chlorobenzoyl)propyl]-2,4-dihydro-4-[6-[4-(5-methoxy-2-pyridinyl) -1-piperazinyl]-3-pyridinyl]-3H-1,2,4-triazol-3-one]
0.1 (≈ 0.0533 µg/mL) | CCC(C(=O)c1ccc(Cl)cc1)n1ncn(-c2ccc(N3CCN(c4ccc(OC)nc4)CC3)cc2)c1=O (racemic) [compound 6, (±)-2-[1-(4-chlorobenzoyl)propyl]-2,4-dihydro-4-[4-[4-(6-methoxy-3-pyridinyl)-1-piperazinyl]phenyl]-3H-1,2,4-triazol-3-one]
0.1 (≈ 0.0533 µg/mL) | CCC(C(=O)c1ccc(Cl)cc1)n1ncn(-c2ccc(N3CCN(c4ccc(OC)cn4)CC3)cc2)c1=O (racemic) [compound 3, (±)-2-[1-(4-chlorobenzoyl)propyl]-2,4-dihydro-4-[4-[4-(5-methoxy-2-pyridinyl)-1-piperazinyl]phenyl]-3H-1,2,4-triazol-3-one]
